Laboratory results reported in publication PMC6905088 (Biochemical pharmacology, 2019).
“And” between values parts separate entries of the source, which are not always exact repeats. Identical values can stand only once. “Also recorded” adds a separate entry of the source. Like-named read-outs stand apart in the source and are kept apart here. Each block holds one molecule with its values, some of them ahead of it.

Experiments:
[1] = molecular target: T1, CYP2A6 (Homo sapiens, UniProt P11509); assay: Recombinant isozyme kinetic assay; type: in vitro ADME
T1 sequence (P11509 1-494): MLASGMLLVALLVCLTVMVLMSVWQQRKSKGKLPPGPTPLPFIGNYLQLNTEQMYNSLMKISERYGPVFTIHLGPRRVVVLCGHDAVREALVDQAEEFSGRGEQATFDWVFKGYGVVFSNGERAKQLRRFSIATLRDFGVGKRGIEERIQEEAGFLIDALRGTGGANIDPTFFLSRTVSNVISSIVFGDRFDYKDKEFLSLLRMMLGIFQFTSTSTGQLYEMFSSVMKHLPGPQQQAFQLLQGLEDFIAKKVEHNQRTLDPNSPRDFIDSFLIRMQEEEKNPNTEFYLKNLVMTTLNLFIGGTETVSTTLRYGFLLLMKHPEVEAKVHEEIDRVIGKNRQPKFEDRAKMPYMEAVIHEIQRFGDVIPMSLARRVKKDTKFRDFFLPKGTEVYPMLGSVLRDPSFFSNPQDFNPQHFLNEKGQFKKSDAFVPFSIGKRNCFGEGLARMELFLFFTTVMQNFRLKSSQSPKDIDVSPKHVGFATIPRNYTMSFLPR

[2] = molecular target: CYP2E1 (Homo sapiens, UniProt P05181); assay: Recombinant isozyme kinetic experiments, CYP2E1; type: in vitro ADME
Chain of CYP2E1 (P05181 whole entry): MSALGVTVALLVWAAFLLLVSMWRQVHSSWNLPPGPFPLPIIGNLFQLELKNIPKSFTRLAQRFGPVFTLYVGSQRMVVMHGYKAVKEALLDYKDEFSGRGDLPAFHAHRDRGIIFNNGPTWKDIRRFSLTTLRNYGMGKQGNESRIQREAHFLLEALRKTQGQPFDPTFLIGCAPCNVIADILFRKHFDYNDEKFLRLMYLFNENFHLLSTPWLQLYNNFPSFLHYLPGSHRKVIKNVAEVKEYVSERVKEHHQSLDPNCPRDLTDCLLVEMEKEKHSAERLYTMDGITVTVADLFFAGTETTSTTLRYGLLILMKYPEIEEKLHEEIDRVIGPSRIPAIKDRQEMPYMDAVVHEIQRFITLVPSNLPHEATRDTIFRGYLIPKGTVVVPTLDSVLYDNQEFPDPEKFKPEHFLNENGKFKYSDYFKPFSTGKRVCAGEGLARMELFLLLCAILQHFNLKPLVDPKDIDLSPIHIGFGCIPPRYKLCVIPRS

[3] = test system: CYP2C19; settings: substrate terbinafine, ref Davis et al. (2019); cited from earlier work
[4] = test system: CYP3A4; settings: substrate terbinafine, ref Davis et al. (2019); cited from earlier work
[5] = ref Vago et al., 1994, Kovarik et al., 1995; cited from earlier work
[6] = ref Terbianfine Product Monograph, Canada, 1995; cited from earlier work
[7] = molecular target: T2, CYP2B6 (Homo sapiens, UniProt P20813); assay: Recombinant isozyme kinetic assay
T2 sequence (P20813 1-491): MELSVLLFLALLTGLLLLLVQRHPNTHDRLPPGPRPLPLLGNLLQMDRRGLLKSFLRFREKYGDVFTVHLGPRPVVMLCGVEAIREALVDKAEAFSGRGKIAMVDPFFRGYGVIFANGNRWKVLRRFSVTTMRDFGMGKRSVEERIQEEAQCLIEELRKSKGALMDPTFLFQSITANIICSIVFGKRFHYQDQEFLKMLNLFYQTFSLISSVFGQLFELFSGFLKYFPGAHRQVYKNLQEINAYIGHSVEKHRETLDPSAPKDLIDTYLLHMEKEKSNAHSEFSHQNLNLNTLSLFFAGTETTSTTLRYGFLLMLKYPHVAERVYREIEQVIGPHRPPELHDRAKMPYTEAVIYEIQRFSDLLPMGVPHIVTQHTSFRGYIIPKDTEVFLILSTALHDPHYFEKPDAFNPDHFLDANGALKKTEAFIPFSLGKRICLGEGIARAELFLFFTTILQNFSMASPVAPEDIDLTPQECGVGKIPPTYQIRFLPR

[8] = molecular target: T3, CYP2C8 (Homo sapiens, UniProt P10632); assay: Recombinant isozyme kinetic assay; settings: substrate terbinafine
T3 sequence (P10632 1-490): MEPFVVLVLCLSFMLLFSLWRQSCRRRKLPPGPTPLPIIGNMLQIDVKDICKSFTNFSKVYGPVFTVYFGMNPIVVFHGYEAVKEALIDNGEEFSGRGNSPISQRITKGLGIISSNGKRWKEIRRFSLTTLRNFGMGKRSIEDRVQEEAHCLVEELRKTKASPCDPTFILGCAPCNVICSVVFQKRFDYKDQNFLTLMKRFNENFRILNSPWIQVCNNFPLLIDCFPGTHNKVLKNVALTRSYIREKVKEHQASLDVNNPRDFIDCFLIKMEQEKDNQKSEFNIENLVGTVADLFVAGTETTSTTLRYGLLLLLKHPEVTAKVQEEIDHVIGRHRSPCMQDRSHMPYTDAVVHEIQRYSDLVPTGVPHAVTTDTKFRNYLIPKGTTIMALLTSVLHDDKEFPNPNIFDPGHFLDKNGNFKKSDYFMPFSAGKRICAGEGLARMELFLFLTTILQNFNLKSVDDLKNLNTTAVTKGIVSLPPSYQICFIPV

[9] = molecular target: CYP2C9 (Homo sapiens, UniProt P11712); assay: Recombinant isozyme kinetic assay; settings: CYP2C9; substrate terbinafine
[10] = molecular target: CYP2D6 (Homo sapiens, UniProt P10635); assay: Recombinant isozyme kinetic assay; settings: Pathway 1 Step 1, substrate terbinafine
[11] = test system: CYP2C9 and 3A4; assay: In vitro to in vivo scaling of P450 kinetics, CYP2C9 and 3A4 combined; settings: scaled to average protein concentrations in human liver microsomes
[12] = substrate: CN(C/C=C/C#CC(C)(C)C)Cc1cccc2ccccc12; assay: cells, lysate or membranes named; settings: substrate terbinafine, pH 7.4, 37.0 °C
[13] = substrate: CN(C/C=C/C#CC(C)(C)C)Cc1cccc2ccccc12
[14] = other: CYP2C8, Pathway 2 Step 2.1
[15] = other: CYP2C9, Pathway 2 Step 2.1
[16] = other: CYP1A2, Pathway 1 Step 1
[17] = other: CYP1A2, Pathway 2 Step 2.1

role in terbinafine metabolism [2]: no role
TBF-A formation (steady-state kinetic constants) ([7]; Pathway 1 Step 1, substrate terbinafine): undetected
Km at 30 min ([7]; human, recombinant CYP2B6 Supersomes, pH 7.4, Km or S50, hydroxyterbinafine formation, substrate terbinafine): 300 ± 100 µM
hydroxyterbinafine formation (kinetic constants) [8]: undetected
terbinafine dihydrodiol formation (kinetic constants) [8]: undetected
hydroxyterbinafine formation (kinetic constants) [9]: undetected
TBF-A formation (steady-state kinetic constants) [10]: undetected
combined contribution of CYP2C9 and 3A4 to every metabolic step [11]: over 60%
Molecule: CN(C/C=C/C#CC(C)(C)C)Cc1cccc2ccccc12 [terbinafine]
metabolite formation / role in terbinafine metabolism [1]: not able to generate metabolites; also recorded: no role
Hill slope (n), hydroxyterbinafine formation [3]: 1.40 ± 0.11
Hill slope (n), terbinafine dihydrodiol formation [3]: 0.58 ± 0.08
Hill slope (n), hydroxyterbinafine formation [4]: 1.30 ± 0.16
Hill slope (n), terbinafine dihydrodiol formation [4]: 2.0 ± 0.32
reported plasma terbinafine and metabolite levels [5]: ≤ 3 µM
risk of idiosyncratic liver toxicity, one in N patients [6]: 45,000–54,000

B1: CYP2C8 (Homo sapiens) (protein)
chain: MEPFVVLVLCLSFMLLFSLWRQSCRRRKLPPGPTPLPIIGNMLQIDVKDICKSFTNFSKVYGPVFTVYFGMNPIVVFHGYEAVKEALIDNGEEFSGRGNSPISQRITKGLGIISSNGKRWKEIRRFSLTTLRNFGMGKRSIEDRVQEEAHCLVEELRKTKASPCDPTFILGCAPCNVICSVVFQKRFDYKDQNFLTLMKRFNENFRILNSPWIQVCNNFPLLIDCFPGTHNKVLKNVALTRSYIREKVKEHQASLDVNNPRDFIDCFLIKMEQEKDNQKSEFNIENLVGTVADLFVAGTETTSTTLRYGLLLLLKHPEVTAKVQEEIDHVIGRHRSPCMQDRSHMPYTDAVVHEIQRYSDLVPTGVPHAVTTDTKFRNYLIPKGTTIMALLTSVLHDDKEFPNPNIFDPGHFLDKNGNFKKSDYFMPFSAGKRICAGEGLARMELFLFLTTILQNFNLKSVDDLKNLNTTAVTKGIVSLPPSYQICFIPV
Km [12, 14]: 72 ± 12 µM
kcat [12, 14]: 260 ± 12 pmol/min/nmol protein

B2: CYP2D6 (Homo sapiens) (protein)
chain: MGLEALVPLAVIVAIFLLLVDLMHRRQRWAARYPPGPLPLPGLGNLLHVDFQNTPYCFDQLRRRFGDVFSLQLAWTPVVVLNGLAAVREALVTHGEDTADRPPVPITQILGFGPRSQGVFLARYGPAWREQRRFSVSTLRNLGLGKKSLEQWVTEEAACLCAAFANHSGRPFRPNGLLDKAVSNVIASLTCGRRFEYDDPRFLRLLDLAQEGLKEESGFLREVLNAVPVLLHIPALAGKVLRFQKAFLTQLDELLTEHRMTWDPAQPPRDLTEAFLAEMEKAKGNPESSFNDENLRIVVADLFSAGMVTTSTTLAWGLLLMILHPDVQRRVQQEIDDVIGQVRRPEMGDQAHMPYTTAVIHEVQRFGDIVPLGVTHMTSRDIEVQGFRIPKGTTLITNLSSVLKDEAVWEKPFRFHPEHFLDAQGHFVKPEAFLPFSAGRRACLGEPLARMELFLFFTSLLQHFSFSVPTGQPRPSHHGVFAFLVSPSPYELCAVPR
K0.5 [13]: 16 ± 3.2 µM and 25 ± 4.1 µM

B3: CYP2C9 (Homo sapiens) (protein)
chain: MDSLVVLVLCLSCLLLLSLWRQSSGRGKLPPGPTPLPVIGNILQIGIKDISKSLTNLSKVYGPVFTLYFGLKPIVVLHGYEAVKEALIDLGEEFSGRGIFPLAERANRGFGIVFSNGKKWKEIRRFSLMTLRNFGMGKRSIEDRVQEEARCLVEELRKTKASPCDPTFILGCAPCNVICSIIFHKRFDYKDQQFLNLMEKLNENIKILSSPWIQICNNFSPIIDYFPGTHNKLLKNVAFMKSYILEKVKEHQESMDMNNPQDFIDCFLMKMEKEKHNQPSEFTIESLENTAVDLFGAGTETTSTTLRYALLLLLKHPEVTAKVQEEIERVIGRNRSPCMQDRSHMPYTDAVVHEVQRYIDLLPTSLPHAVTCDIKFRNYLIPKGTTILISLTSVLHDNKEFPNPEMFDPHHFLDEGGNFKKSKYFMPFSAGKRICVGEALAGMELFLFLTSILQNFNLKSLVDPKNLDTTPVVNGFASVPPFYQLCFIPV
kcat ([12]; other: CYP2C9, Pathway 1 Step 1): 800 ± 170 pmol/min/nmol protein
Km [12, 15]: 20 ± 5.1 µM
kcat [12, 15]: 400 ± 19 pmol/min/nmol protein
K0.5 ([12]; other: CYP2C9, Hill equation): 72 ± 92 µM

B4: CYP1A2 (Homo sapiens) (protein)
chain: MALSQSVPFSATELLLASAIFCLVFWVLKGLRPRVPKGLKSPPEPWGWPLLGHVLTLGKNPHLALSRMSQRYGDVLQIRIGSTPVLVLSRLDTIRQALVRQGDDFKGRPDLYTSTLITDGQSLTFSTDSGPVWAARRRLAQNALNTFSIASDPASSSSCYLEEHVSKEAKALISRLQELMAGPGHFDPYNQVVVSVANVIGAMCFGQHFPESSDEMLSLVKNTHEFVETASSGNPLDFFPILRYLPNPALQRFKAFNQRFLWFLQKTVQEHYQDFDKNSVRDITGALFKHSKKGPRASGNLIPQEKIVNLVNDIFGAGFDTVTTAISWSLMYLVTKPEIQRKIQKELDTVIGRERRPRLSDRPQLPYLEAFILETFRHSSFLPFTIPHSTTRDTTLNGFYIPKKCCVFVNQWQVNHDPELWEDPSEFRPERFLTADGTAINKPLSEKMMLFGMGKRRCIGEVLAKWEIFLFLAILLQQLEFSVPPGVKVDLTPIYGLTMKHARCEHVQARLRFSIN
Km [12, 16]: 75 ± 42 µM and 31 ± 17 µM
kcat [12, 16]: 100 ± 12 pmol/min/nmol protein
Km [12, 17]: 120 ± 23 µM
kcat [12, 17]: 530 ± 38 pmol/min/nmol protein
K0.5 ([12]; other: CYP1A2, Hill equation): 130 ± 87 µM
K0.5 ([12]; other: CYP1A2): 45 ± 5.7 µM
